# Where “and” joins values, the source holds several entries; their conditions need not be identical. Identical values can stand only once.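 Step 1: Grow cells in 96-well plates. Step 2: Expose to compound for 48 hours at 5 concentrations. Step 3: Interpolate endpoints linearly; if unreached, use highest concentration. GI50: concentration for 50% inhibition of growth. TGI denotes the concentration required for complete inhibition of growth.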
# Experiments:
# Test in all cases: DTP human tumour cell line panel, 48 h
# [1] = test system: HCT-116 colon
# [2] = test system: MOLT-4 leukemia
# [3] = test system: OVCAR-4 ovarian
# [4] = test system: NCI-H226 lung
# [5] = test system: EKVX NSCLC
# [6] = test system: HCC-2998 colon
# [7] = test system: SK-MEL-5 melanoma
# [8] = test system: SR leukemia
# [9] = test system: SK-MEL-2 melanoma
SMILES,GI50 [1],GI50 [2] [µM],TGI [2] [µM],GI50 [3],TGI [3],GI50 [4],TGI [4],GI50 [5] [µM],TGI [5] [µM],TGI [1] [µM],TGI [6] [µM],TGI [7] [µM],TGI [8] [µM],TGI [9] [µM],GI50 [6] [µM],GI50 [9] [µM],GI50 [7] [µM]
COc1ccc(S(=O)(=O)N2CCN(C(=O)c3ccc(-c4ccccc4)cc3)CC2C(=O)NO)cc1 (stereo not given),2.92 µM and 25.5 µM,15.9,95.9,3.42 µM and 27.1 µM,12.5 µM and > 100 µM,5.2 µM and 20.7 µM,12.5 µM and 88.9 µM,1.61,7.02,–,–,–,–,–,–,–,–
CCC(=O)c1c(NOC2OCC(OC(C)=O)C(OC(C)=O)C2OC(C)=O)nc(OC)n(C)c1=O (stereo not given),–,–,> 100,–,> 100 µM,–,> 100 µM,–,> 100,> 100,> 100,> 100,> 100,–,–,–,–
C#Cc1cccc(N2C(=O)c3c(c(-c4ccccc4)c(-c4ccc(Cc5ccc(-c6c(-c7ccccc7)c7c(c(-c8ccccc8)c6-c6ccccc6)C(=O)N(c6cccc(C#C)c6)C7=O)cc5)cc4)c(-c4ccccc4)c3-c3ccccc3)C2=O)c1,–,–,> 100,–,> 100 µM,–,–,–,> 100,> 100,> 100,62,–,> 100,–,–,–
O=C(O)c1ccc(NCn2nc(-c3ccccc3O)oc2=S)cc1,23.7 µM,4.69,26.8,–,–,> 100 µM,> 100 µM,> 100,> 100,57.3,93.7,> 100,–,> 100,29.2,> 100,> 100
COc1ccc(N=NC(C(=O)c2ccccc2)C(=O)c2ccccc2)cc1,–,–,72.2,–,> 100 µM,–,29.9 µM,–,71.1,38.8,91.1,34,–,61.2,–,–,–
O=C(CCC(=O)Nc1ccc(Cl)c(Cl)c1)CC(=O)c1ccc(Br)cc1,–,–,> 100,–,> 100 µM,–,> 100 µM,–,> 100,> 100,–,> 100,–,> 100,–,–,–
COc1ccc(NC(=O)/C(=C/c2ccccc2)C(C)=O)cc1,–,–,32.6,–,24.6 µM,–,96.9 µM,–,49.4,–,33.5,28.2,–,28.6,–,–,–
CCOC(=O)C1=C(Nc2ccc(Cl)cc2Cl)OCC1=O,–,–,> 100,–,> 100 µM,–,> 100 µM,–,–,> 100,> 100,–,> 100,> 100,–,–,–
CC1=C[C@H]2c3c([nH]c4ccccc34)C(c3c[nH]c4ccccc34)[C@H]2CC1 (stereo not given in full),–,–,5.89,–,–,–,27.7 µM,–,29.7,11.9,12.4,28,–,–,–,–,–
CCC1CC2C(=O)N(c3ccccc3)C(=O)C2c2[nH]c3ccccc3c21 (stereo not given),–,–,> 100,–,25.6 µM,–,33.8 µM,–,95.3,–,> 100,> 100,> 100,–,–,–,–
COC(=O)/C=C(C)/C=C/C1OC(C)OCC1O (stereo not given),–,–,> 100,–,> 100 µM,–,> 100 µM,–,> 100,–,> 100,> 100,–,–,–,–,–
C=C(CC(NC(=O)c1ccc(C(CC)Cc2cnc3nc(N)nc(N)c3n2)cc1)C(=O)O)C(=O)O (stereo not given),–,–,> 100,> 100 µM,> 100 µM,–,> 100 µM,–,> 100,> 100,–,> 100,> 100,–,0.0265,–,–
O=C(Cc1nc2ccccc2c(=O)n1-c1ccccc1Cl)c1ccncc1,–,–,> 100,–,> 100 µM,–,> 100 µM,–,> 100,> 100,> 100,> 100,–,> 100,–,–,–
CCOC(=O)C(=O)Nc1ccccc1C,–,–,> 100,–,> 100 µM,–,> 100 µM,–,> 100,> 100,> 100,> 100,–,> 100,–,–,–
CCCNC(=O)C1C(=O)C(=O)N(CCC)C1=O (stereo not given),–,–,> 100,–,> 100 µM,–,–,–,> 100,> 100,> 100,> 100,–,> 100,–,–,–
COC12CCC(=O)C=C1c1ccccc1N2C(C)=O (stereo not given),–,–,> 100,–,> 100 µM,–,–,–,> 100,> 100,> 100,–,> 100,> 100,–,–,–
CC(Oc1ccc2c(-c3ccccc3)cc(=O)oc2c1)C(=O)O (stereo not given),–,–,> 100,–,> 100 µM,–,> 100 µM,–,> 100,> 100,> 100,> 100,> 100,–,–,–,–
Cc1ccccc1NC(=O)c1cc(-c2ccc([N+](=O)[O-])cc2)nc(=S)[nH]1,–,–,> 100,–,> 100 µM,–,> 100 µM,–,> 100,> 100,> 100,> 100,–,> 100,–,–,–
COC/C=C\COC,–,–,> 100,–,> 100 µM,–,> 100 µM,–,> 100,> 100,> 100,> 100,–,> 100,–,–,–
N/N=C1\C(=O)N(C2CCCCCC2)C(=O)C1C(=O)NC1CCCCCC1 (stereo not given),–,–,55.7,–,> 100 µM,–,–,–,> 100,–,43.9,43.6,–,37.6,–,–,–

# — PubChem BioAssay (NCI)
